Experimental data as given in patent publication US11865128B2, “Aminoglycosides and uses thereof in treating genetic disorders” (Technion Research & Development Foundation Limited, priority 2010, dated 2024).
In brackets after ≈: the same amount, converted by molar mass. Entries after “also recorded” stand apart in the source; their conditions may differ. Like-named read-outs stand apart in the source and are kept apart here.

Tests used:
[1] = target: Prokaryotic system (prokaryotic ribosome); assay: Prokaryotic translation inhibition, coupled transcription/translation, luciferase detection; type: biochemical
Experimental: Prokaryotic and eukaryotic translation inhibition was quantified in coupled transcription/translation assays by using active luciferase detection, performed as described hereinabove. […] All the experiments were performed in duplicates and analogous results were obtained in three different experiments. In all biological tests, all tested aminoglycosides were in their sulfate salt forms. The concentrations reported refer to that of the free amine form of each aminoglycoside.
(§1) In all biological experiments conducted, all tested aminoglycosides were in their sulfate salt forms. The concentrations reported in Table 3 refer to that of the free amine form of each aminoglycoside. Prokaryotic and eukaryotic translation inhibition was quantified in coupled transcription/translation assays as previously described. The half-maximal concentration (IC50) values were obtained from fitting concentration response curves to the data of at least three independent experiments, using GraFit 5 software. All the experiments were performed in duplicates and analogous results were obtained in three different experiments.

[2] = Cell toxicity LC50 in HEK-293 cells; type: cell-based; settings: human, HEK-293 cells, read-out: Cell toxicity LC50 HEK-293
Experimental: (§2) In order to ensure suitable cell viability for each of the tested compounds at the concentrations tested, cell toxicity was evaluated for each compound by measuring the half-maximal-lethal concentration value (LC50 values) in HEK-293 and HFF (human foreskin fibroblasts) cells.
(§3) The percentages of cell viability were calculated as the ratio between the numbers of living cells in cultures grown in the presence of the tested compounds, versus cultures grown under the identical protocol but without the tested compound. The results represent averages of at least three independent experiments.
(§4) The half-maximal lethal concentration (LC50) values were obtained from fitting concentration-response curves to the data of at least three independent experiments, using GraFit 5 software.

[3] = test system: nonsense mutation constructs R3X, R245X, Q70X, W1282X, G542X in HEK-293 cells; assay: Ex vivo stop codon readthrough assay, p2luc constructs transfected to HEK-293 cells; type: cell-based, human; settings: ex vivo in HEK-293, all the mutations tested, FIGS. 4, 8-10
Experimental: For the ex vivo readthrough assays, the constructs harboring the R3X, R245X, Q70X and W1282X mutations were transfected to HEK-293 cells with Lipofectamine 2000 (Invitrogen) and addition of the tested compounds was performed 6 hours post transfection. The cells were harvested following 16 hours of incubation with the tested aminoglycosides. Stop codon readthrough was calculated as previously described (see, Grentzmann, G. et al., RNA, 1998, 4, p. 479).
The constructs were transfected into a human embryonic kidney cell line (HEK-293) and incubated with varying concentrations of NB122, NB123, NB54 and the control drug gentamicin, and the results are presented in FIGS. 4A-D.
As described hereinabove, the constructs of p2luc plasmid harboring the R3X, R245X, Q70X and W1282X mutations were transfected to HEK-293 cells using lipofectamine2000 and the tested compounds were added 6 hours post transfection. Cells were harvested after 16 hours incubation and luciferase activity was determined using the dual luciferase reporter assay system (Promega™). Stop codon readthrough was calculated as described previously, and the results are averages of at least three independent experiments.

[4] = test system: Prokaryotic system (prokaryotic ribosome); settings: shown previously; cited from earlier work
[5] = Cell toxicity LC50 in HFF cells; type: cell-based; settings: human, HFF (human foreskin fibroblast) cells, read-out: Cell toxicity LC50 HFF
Experimental: as §2, §3, §4

B. subtilis ATCC6633 = assay: Antibacterial activity MIC, double-microdilution; type: cell-based, Bacillus subtilis; settings: read-out: Antibacterial activity MIC B. subtilis ATCC6633
HEK-293 cells = assay: Cell toxicity LC50 in HEK-293 cells; type: cell-based
Experimental: as §2, §3, §4

[6] = test system: HFF (human foreskin fibroblasts) cells; assay: Cell toxicity LC50 in HFF cells; type: cell-based
Experimental: as §2, §3, §4

[7] = test system: Eukaryotic system (eukaryotic cytoplasmic ribosome); assay: Eukaryotic translation inhibition, coupled transcription/translation, luciferase detection; type: biochemical; settings: for Prokaryotic versus Eukaryotic selectivity IC50^Euk/IC50^Pro: ratio of eukaryotic to prokaryotic translation inhibition IC50
Excerpt: Prokaryotic and eukaryotic translation inhibition was quantified in coupled transcription/translation assays by using active luciferase detection, performed as described hereinabove. […] In all biological tests, all tested aminoglycosides were in their sulfate salt forms. The concentrations reported refer to that of the free amine form of each aminoglycoside.
as §1, with “software.” for “software. All the experiments were performed in duplicates and analogous results were obtained in three different experiments.”

E. coli R477/100 = assay: Antibacterial activity MIC, double-microdilution; type: cell-based, Escherichia coli; settings: read-out: Antibacterial activity MIC E. coli R477/100
[8] = test system: nonsense mutation constructs R3X, R245X, G542X, W1282X, Q70X, R3381X (PCDH15, CFTR, IDUA, Dystrophin); assay: In vitro stop codon readthrough assay, p2Luc dual luciferase, TNT reticulocyte lysate; type: biochemical; settings: cell-free, mutations tested; comparison in words from FIGS. 2, 3, 5-7
Excerpt: DNA fragments derived from PCDH15, CFTR, Dystrophin and IDUA cDNAs, including the tested nonsense mutation or the corresponding wild type (wt) codon, and four to six upstream and downstream flanking codons were created by annealing following pairs of complementary oligonucleotides:
The fragments were inserted in frame into the polylinker of the p2Luc plasmid between either BamHI and SacI (p.R3X and p.R245X), or SalI and SacI (all the rest) restriction sites.
For the in vitro readthrough assays, the obtained plasm ids, with addition of the tested aminoglycosides were transcribed and translated using the TNT Reticulocyte Lysate Quick Coupled Transcription/Translation System. Luciferase activity was determined after 90 minutes of incubation at 30° C., using the Dual Luciferase Reporter Assay System (Promega™).
Initially, the influence of the chiral C5″-methyl group on readthrough potential was evaluated on the pseudo-trisaccharides NB118 and NB119 by using a dual luciferase reporter assay system as described hereinabove. Briefly, DNA fragments were cloned between BamHI and SacI restriction sites of the p2luc vector and the obtained constructs were transcribed and translated using TNT quick coupled transcription/translation system. The amount of the translated products was evaluated using the dual luciferase reporter assay system and used to calculate the suppression level.

[9] = Table 2, read-out: Translation Inhibition Prokaryotic system IC50
[10] = Table 3, read-out: Translation Inhibition IC50^Pro
[11] = Bacillus subtilis, ATCC6633, Table 2
[12] = Table 1, read-out: Translation inhibition Prokaryotic system IC50
[13] = Table 1, read-out: Translation inhibition Eukaryotic System IC50
[14] = Table 2, read-out: Translation Inhibition Eukaryotic System IC50
[15] = Table 3, read-out: Translation Inhibition IC50^Euk

`C[C@@H](O)C1O[C@H](O[C@@H]2C(N)C[C@@H](N)[C@@H](O)C2O[C@@H]2O[C@H](CN)[C@H](O)C2O)[C@@H](N)C(O)[C@@H]1O` (some centres unmarked) [NB74, reference compound] gave an IC50 [1, 9] of 1.13 ± 0.12 µM, an IC50 [1, 10] of 1.13 ± 0.12 µM and a CC50 ([2]; Table 2) of 22200 ± 1060 µM. For the same compound, the “observed efficacy of aminoglycoside-induced readthrough, order” value (from here on “observed efficacy”) [3] was “NB124>NB125>NB74>gentamicin”, the “weaker inhibitors of prokaryotic translation than gentamicin and paromomycin” value [4] was “about 10 fold” and the CC50 ([5]; Table 2) was 21300 ± 1720 µM. It also gave an MIC (B. subtilis ATCC6633; [11]) of 42 µM (≈ 19.7 µg/mL).
Gentamicin [reference compound] gave an IC50 [1, 12] of 0.028 ± 0.004 µM, an IC50 [1, 9] of 0.028 ± 0.004 µM and an IC50 [1, 10] of 0.028 ± 0.004 µM. The CC50 (HEK-293 cells; Table 1) was 2500 ± 300 µM, the CC50 (HEK-293 cells; Table 2) was 2650 ± 540 µM and the “observed efficacy” value [3] was “NB127 NB128>NB84>gentamicin”. For the same compound, the “observed efficacy” value ([3]; listed as gentamicin) was “NB122≥NB123>NB54>gentamicin; also recorded: NB124>NB125>NB74>gentamicin”, the CC50 ([6]; Table 1) was 3200 ± 300 µM and the CC50 ([6]; Table 2) was 3210 ± 310 µM. The “more selective to prokaryotic versus eukaryotic ribosome” value [7] was 2,214 fold, the IC50 [7, 13] was 62 ± 9 µM and the IC50 [7, 14] was 62 ± 9 µM. For the same compound, the IC50 [7, 15] was 62 ± 9 µM, the “Prokaryotic versus Eukaryotic selectivity IC50^Euk/IC50^Pro” value [7] was 2,214 and the MIC (B. subtilis ATCC6633; Table 1, free amine concentration, sulfate salts tested) was less than 0.75 µM. For the same compound, the MIC (B. subtilis ATCC6633; Table 2) was less than 0.75 µM, the MIC (E. coli R477/100; Table 1) was 6 µM and the MIC (E. coli R477/100; Table 2) was 6 µM.
For `NCC[C@H](O)C(=O)N[C@@H]1CC(N)[C@@H](O[C@H]2OC(CO)[C@@H](O)[C@H](O)C2N)[C@H](O[C@@H]2O[C@H](CN)[C@H](O)C2O)C1O` (some centres unmarked) [NB54, reference compound], the IC50 [1, 12] was 0.16 ± 0.02 µM, the IC50 [1, 10] was 0.16 ± 0.02 µM and the CC50 ([2]; Table 1) was 6100 µM. For the same compound, the “observed efficacy” value [3] was “NB122≥NB123>NB54>gentamicin”, the “weaker inhibitors of prokaryotic translation than gentamicin and paromomycin” value [4] was “about 10 fold” and the CC50 ([5]; Table 1) was 7800 ± 400 µM. For the same compound, the IC50 [7, 13] was 24 µM, the IC50 [7, 15] was 24 ± 1 µM and the “Prokaryotic versus Eukaryotic selectivity IC50^Euk/IC50^Pro” value [7] was 151. The MIC (B. subtilis ATCC6633; Bacillus subtilis, ATCC6633, Table 1, free amine concentration, sulfate salts tested) was 70 µM and the MIC (E. coli R477/100; Escherichia coli, R477/100, Table 1) was 588 µM (≈ 327 µg/mL).
In the case of `C[C@H](N)[C@H]1O[C@@H](OC2C(O)[C@H](N)CC(N)[C@H]2O[C@H]2OC([C@@H](C)O)[C@@H](O)C(O)C2N)C(O)C1O` (stereo partly drawn) [NB124, 6′-(R)-Methyl-5-O-(5-amino-5,6-dideoxy-α-L-talofuranosyl)-Paromamine], the “in vitro readthrough activity (stop codon suppression level)” value [8] is reported as “improved significantly compared to that of the clinical drug gentamicin”, the IC50 [1, 9] is reported as 1.1 ± 0.185 µM and the IC50 [1, 10] is reported as 1.1 ± 0.185 µM. The CC50 ([2]; Table 2) was 5400 ± 450 µM, the “observed efficacy” value [3] was “NB124>NB125>NB74>gentamicin” and the CC50 ([5]; Table 2) was 4750 ± 330 µM. The IC50 [7, 14] was 1.49 ± 0.08 µM, the IC50 [7, 15] was 1.49 ± 0.08 µM and the “Prokaryotic versus Eukaryotic selectivity IC50^Euk/IC50^Pro” value [7] was 1.3. It also gave an MIC (B. subtilis ATCC6633; [11]) of 96 µM (≈ 46.3 µg/mL) and an MIC (E. coli R477/100; Escherichia coli, R477/100, Table 2) of 768 µM (≈ 371 µg/mL).
